Data published in US20260242739A1, “ROLE OF HEPATOCYTE-DERIVED EXTRACELLULAR MATRIX AND COAGULATION FACTORS FOR THE FATE RESTORATION AND MAINTENANCE OF HUMAN HEPATOCYTES” (UNIVERSITY OF SOUTHERN CALIFORNIA, priority 2023, published 2026).

System: HLCM-HHs
Type: cell-based, human
Settings: 7 days
Procedure: As described in our previous publication (Tateno 2015), humanized liver chimeric mice (HLCM) were generated through xenotransplantation of cryopreserved or freshly isolated primary human hepatocytes (Lot:JFC, BioIVT, NY, US) into severe […] immune deficient (SCID) mice carrying a albumin enhancer/promoter-driven transgene (cDNA), urokinase type plasminogen activator, namely cDNA-uPA Tg/SCID). HLCM with blood human albumin level higher than 10 mg/mL were used for human hepatocyte isolation with two-step collagenase perfusion. The freshly isolated HLCM derived human hepatocytes (HLCM-HH) were plated on type I collagen coated culture dishes (BioCoat, Corning, NY, USA) at 1.05×10^5 cells/cm^2. […]
Total RNA was extracted with Zymo-Quick RNA micro kit (Zymo Research, CA, USA) according to the provider's protocol. […] Real-time quantitative PCR was performed with PowerUp SYBR Green Master Mix (ThermoFisher Scientific, MA, USA) and QuantStudio 5 systems (ThermoFisher Scientific) using human specific primer sets summarized in the Table 4. Relative gene expression levels were analyzed with the Delta-Dleta Ct method.

Fibrinogen
expression of cholangiocyte/liver progenitor cell markers, TGFB2 and ANKRD1 (INVITROGRO HI (IH) and HCM media with or without fibrinogen 50 μg/mL): significantly inhibited
expressions of cholangiocyte/liver progenitor cell markers (TGFB1, TGFB2, ANKRD1, KRT19) (supplemented to fresh dHCGM at 50 μg/mL, vs dHCGM alone, qPCR): significantly inhibited
